The target in experiment [1] is T1, 5HT3 receptors located in vagal afferent fibres (Rattus norvegicus, UniProt P35563).
T1 construct: 5HT3 receptors located in vagal afferent fibres; from tissue; host or cells: vagal afferent fibres of the anaesthetized rat (in vivo)
T1 sequence (P35563 24-483): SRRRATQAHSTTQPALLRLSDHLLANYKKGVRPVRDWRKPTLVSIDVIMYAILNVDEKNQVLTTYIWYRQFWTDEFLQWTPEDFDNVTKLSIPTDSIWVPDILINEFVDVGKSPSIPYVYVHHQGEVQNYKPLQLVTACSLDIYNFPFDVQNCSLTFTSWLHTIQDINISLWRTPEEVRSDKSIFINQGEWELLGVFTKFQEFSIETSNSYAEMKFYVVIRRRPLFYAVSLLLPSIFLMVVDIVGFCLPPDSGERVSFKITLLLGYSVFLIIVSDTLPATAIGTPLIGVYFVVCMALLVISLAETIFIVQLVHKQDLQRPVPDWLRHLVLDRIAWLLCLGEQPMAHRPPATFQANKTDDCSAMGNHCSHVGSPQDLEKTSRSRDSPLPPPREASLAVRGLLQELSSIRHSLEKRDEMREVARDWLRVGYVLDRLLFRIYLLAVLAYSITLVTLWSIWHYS
Put plainly: Inhibition of the Bezold-Jarisch reflex in the anaesthetized rat. In kind it is in vivo. The conditions noted are these: iv, read-out: BEZOLD-JARISCH REFLEX IN THE RAT (ID50; μg/kg i.v.). From the text:
(1) Stimulation by 5-HT of 5HT3 receptors located in vagal afferent fibres produces a fall in heart rate and blood pressure in the anaesthetized rat (Bezold-Jarisch reflex).

For experiment [2], the system named is Cis-platinum induced emesis. Put plainly: Cis-platinum induced emesis in the dog. It counts as in vivo. The text has this:
(Gylys, J. A., Dora, K. M. & Buyniski J. P. Res. Comm. Chem. Pathol. Pharmacol. (1979)23: 61-68).

Experiment [3] has as its system CuSO4-induced emesis. Put plainly: CuSO4-induced emesis in the dog. In kind it is in vivo. The conditions noted are these: for C4 SO4 - INDUCED VOMITING No EMETIC EPISODES IN THE DOG (% Inh.): 1 mg/kg i.v. From the text: (Kayashima, N., Tanaka, M., Iwasaki, M. & Hayama, T. Japan J. Pharmacol. (1978)28: 775-781).
For experiment [4], the system named is gastric emptying. Put plainly: Stomach emptying (gastric emptying of glass beads) in the rat. Also on record: unit not given here. It counts as in vivo. From the text: (5) Stomach emptying in the rat, administering compounds by oral route. (Jacoby, H. I., and Brodie, D. A. Gastroenterol. 52, 676-684, 1967).
All of them show a good prokinetic activity in the gastric emptying of glass beads in the rat.

For experiment [5], the system named is Apomorphine-induced emesis. The experiment can be described thus: Apomorphine-induced emesis in the dog. The conditions noted are these: for APOMORPHINE-INDUCED VOMITING IN THE DOG % Protected animals: 1 mg/kg i.v.

The values below come from patent US4937236A, “Anxiolytic N-substituted benzamides” (priority 1987, dated 1990).

Where a name gives a salt, the structure may show the parent alone.

For `COCCOc1cc(N)c(Cl)cc1C(=O)N[C@@H]1C[C@H]2CC[C@@H](C1)N2C` [Compound 23, N-(8-methyl-8-azabicyclo[3.2.1]oct-3β-yl)-2-(2-methoxyethoxy)-4-amino-5-chlorobenzamide acid fumarate], in experiment [1], the ED50 is 0.63 µg/kg. The results for the “CISPLATIN-INDUCED VOMITING IN THE DOG (% inhibition)” value in experiment [2] (0.03 mg/kg i.v.) and in experiment [2] (0.1 mg/kg p.o.) were 31% and 53%, respectively. In addition, the “C4 SO4 - INDUCED VOMITING No EMETIC EPISODES IN THE DOG (% Inh.)” value in experiment [3] is 30%. In addition, the “GASTRIC EMPTYING IN THE RAT [drawing 8]” value in experiment [4] (0.01 mg/kg p.o.) was 13; in experiment [4] (1.0 mg/kg p.o.), 61. Besides, the “APOMORPHINE-INDUCED VOMITING IN THE DOG % Protected animals” value in experiment [5] worked out at 0%.
As to `COc1cc(N)c(Cl)cc1C(=O)NC1CN2CCC1CC2` (stereo not shown) [Zacopride, N-(1-azabicyclo[2.2.2]oct-3-yl)-2-methoxy-4-amino-5-chlorobenzamide, reference compound], the ED50 in experiment [1] was found to be 0.21 µg/kg. In addition, the “CISPLATIN-INDUCED VOMITING IN THE DOG (% inhibition)” value in experiment [2] (0.03 mg/kg i.v.) was determined as 92%. Also, in experiment [2] (0.1 mg/kg p.o.), the “CISPLATIN-INDUCED VOMITING IN THE DOG (% inhibition)” value was determined as 88%. Besides, in experiment [3], the “activity in CuSO4-induced vomiting in the dog (in words)” value is “totally inactive” and the “C4 SO4 - INDUCED VOMITING No EMETIC EPISODES IN THE DOG (% Inh.)” value worked out at 0%. Besides, the “GASTRIC EMPTYING IN THE RAT [drawing 8]” value in experiment [4] (0.01 mg/kg p.o.) stood at 51. Also, the “GASTRIC EMPTYING IN THE RAT [drawing 8]” value in experiment [4] (1.0 mg/kg p.o.) amounted to 77. In experiment [5], the “antiemetic activity in apomorphine-induced vomiting in the dog (in words)” value is “lack antiemetic activity” and the “APOMORPHINE-INDUCED VOMITING IN THE DOG % Protected animals” value is given as 0%.
As for `CCN(CC)CCNC(=O)c1cc(Cl)c(N)cc1OC` [Metoclopramide, N-[2-(diethylamino)ethyl]-2-methoxy-4-amino-5-chlorobenzamide, reference compound], the ED50 in experiment [1] stood at 330 µg/kg. Besides, the “CISPLATIN-INDUCED VOMITING IN THE DOG (% inhibition)” value in experiment [2] (1 mg/kg i.v.) came to 69%. Also, the “CISPLATIN-INDUCED VOMITING IN THE DOG (% inhibition)” value in experiment [2] (3 mg/kg p.o.) was found to be 85%. Further, in experiment [3], the “activity in CuSO4-induced vomiting in the dog (in words)” value is given as “decreases the number of emetic episodes” and the “C4 SO4 - INDUCED VOMITING No EMETIC EPISODES IN THE DOG (% Inh.)” value is reported as 60%. In addition, the “GASTRIC EMPTYING IN THE RAT [drawing 8]” value in experiment [4] (0.01 mg/kg p.o.) worked out at 0. In experiment [4] (1.0 mg/kg p.o.), the “GASTRIC EMPTYING IN THE RAT [drawing 8]” value came out at 42. Further, in experiment [5], the “antiemetic activity in apomorphine-induced vomiting in the dog (in words)” value is listed as “very active” and the “APOMORPHINE-INDUCED VOMITING IN THE DOG % Protected animals” value is 100%.
`COCCOc1cc(N)c(Cl)cc1C(=O)NC1CN2CCC1CC2` (stereo not shown) [Compound 11, N-(1-azabicyclo[2.2.2]oct-3-yl)-2-methoxyethoxy-4-amino-5-chlorobenzamide]: the ED50 in experiment [1] amounted to 0.42 µg/kg. The figures for the “CISPLATIN-INDUCED VOMITING IN THE DOG (% inhibition)” value in experiment [2] (0.03 mg/kg i.v.) and in experiment [2] (0.1 mg/kg p.o.) were 81% and 0%, respectively. The “C4 SO4 - INDUCED VOMITING No EMETIC EPISODES IN THE DOG (% Inh.)” value in experiment [3] is given as 24%. In addition, the “GASTRIC EMPTYING IN THE RAT [drawing 8]” value in experiment [4] (0.01 mg/kg p.o.) stood at 60; in experiment [4] (1.0 mg/kg p.o.), 68. In addition, in experiment [5], the “APOMORPHINE-INDUCED VOMITING IN THE DOG % Protected animals” value was found to be 0%.
For `Nc1cc(OCC2CC2)c(C(=O)NC2CN3CCC2CC3)cc1Cl` (stereo not shown) [Compound 1, N-(1-azabicyclo[2.2.2]oct-3-yl)-2-cyclopropylmethoxy-4-amino-5-chlorobenzamide], the ED50 in experiment [1] amounted to 0.56 µg/kg. Also, the “CISPLATIN-INDUCED VOMITING IN THE DOG (% inhibition)” value stood at 88% in experiment [2] (0.03 mg/kg i.v.) and 85% in experiment [2] (0.1 mg/kg p.o.). In addition, the “C4 SO4 - INDUCED VOMITING No EMETIC EPISODES IN THE DOG (% Inh.)” value in experiment [3] was found to be 40%. The “GASTRIC EMPTYING IN THE RAT [drawing 8]” value in experiment [4] (0.01 mg/kg p.o.) is 55; in experiment [4] (1.0 mg/kg p.o.) it was 85. In experiment [5], the “APOMORPHINE-INDUCED VOMITING IN THE DOG % Protected animals” value was found to be 0%.
As to `CN1[C@@H]2CC[C@H]1C[C@H](NC(=O)c1cc(Cl)c(N)cc1OCC1CC1)C2` [Compound 16, N(8-methyl-8-azabicyclo[3.2.1]oct3β-yl)2-cyclopropylmethoxy-4-amino-5-chlorobenzamide], the ED50 in experiment [1] was 2.6 µg/kg. Further, the “CISPLATIN-INDUCED VOMITING IN THE DOG (% inhibition)” value in experiment [2] (0.03 mg/kg i.v.) came out at 53%; in experiment [2] (0.1 mg/kg p.o.) it was 61%. In experiment [3], the “C4 SO4 - INDUCED VOMITING No EMETIC EPISODES IN THE DOG (% Inh.)” value came to 45%. Also, the results for the “GASTRIC EMPTYING IN THE RAT [drawing 8]” value in experiment [4] (0.01 mg/kg p.o.) and in experiment [4] (1.0 mg/kg p.o.) were 32 and 71, respectively. In addition, the “APOMORPHINE-INDUCED VOMITING IN THE DOG % Protected animals” value in experiment [5] was determined as 0%.
